Read-outs that look alike come from different tables or passages of the source.
Key:
[1] = tested on: HeLa cells; assay: Compound screen by flow cytometry: HeLa cell count as surrogate readout of cell viability (z-scoreHeLa); format: cell-based, human
In short: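 The viability surrogate was the count of fixed HeLa cells by flow cytometry, converted to z-scores against DMSO controls with values deviating two-fold excluded. Before counting, cells had been infected with MRSA for 1 h and cleared of extracellular bacteria with gentamicin. They were then exposed overnight to kinase inhibitors in triplicate.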

[2] = tested on: intracellular MRSA; format: cell-based, Staphylococcus aureus; conditions: for %GFP+ rep 1 / z-scoreMRSA+ rep 1: replicate 1; for %GFP+ rep 2 / z-scoreMRSA+ rep 2: replicate 2; for %GFP+ rep 3 / z-scoreMRSA+ rep 3: replicate 3; for z-scoreMRSA+ mean: mean of 3 replicates
Protocol: The cells were resuspended in cell culture medium without antibiotics, seeded with 10,000 cells/well into Costar flat-bottom 96-well plates (Corning, Amsterdam, the Netherlands), and were incubated overnight at 37°C/5% CO2. The next day, the bacteria were centrifuged at ≥1800 g for 15 min and resuspended in cold PBS + 5 mM ethylenediaminetetraacetic acid (EDTA). The number of CFUs present in the bacterial suspension was estimated from the optical density at 600 nm (OD600) by assuming 8x10^8 CFUs to be present in a bacterial suspension with OD600 = 1, based on prior titrations. The bacterial suspension was diluted in cell culture medium without antibiotics and added to the cells. Accuracy of the multiplicity of infection (MOI) was validated by plating serial dilutions of the MRSA inoculums on Difco TS agar plates (BD Biosciences). The calculated mean MOI throughout all experiments was 6.8 ± 4.6 (mean ± SD). Infected cells were centrifuged for 3 min at 150 g and incubated for 1 hour at 37°C/5% CO2. Next, the cells were incubated with fresh cell culture medium supplemented with 30 µg/ml gentamicin sulphate (Lonza BioWhittaker, Basel, Switzerland) for 15 min at 37°C/5% CO2 to kill residual extracellular bacteria. Infected cells were incubated overnight at 37°C/5% CO2 in cell culture medium in the presence of kinase inhibitors and 5 µg/ml gentamicin sulphate-containing medium to prevent the growth of extracellular bacteria. The solvent of the compounds, DMSO, was used at equal % v/v as a negative control. For the screen, each compound was tested in triplicate, on separate cell culture plates, resulting in triplicate values for each kinase inhibitor.
HeLa cells were harvested by trypsinization and fixed with 1% paraformaldehyde. Samples were measured on a FACSLyric with HTS extension (BD Biosciences). Flow cytometry data were analysed using FlowJo version 10 (TreeStar, Ashland, OR, USA). HeLa cells positive for GFP were gated to calculate the percentage of MRSA-infected cells. The cell count was used as surrogate readout of cell viability.
To identify potential “hit” compounds, the flow cytometry data were used to calculate standard z-scores using z = (x-μ)/σ – zneg, where x is total event count or the percent of GFP-positive cells from a single well, μ is the mean from wells of the plate, σ is the standard deviation of the plate and zneg is the mean z-score of the negative control of the plate (i.e., DMSO) ([Korbee et al., 2018]). To minimize the possibility that the presence of extreme values on a plate affected the z-scores, raw values that deviated two-fold from the negative controls were excluded when calculating plate means and standard deviations as used in the aforementioned formula. Compounds were considered a “hit” when z-scoreMRSA+ ≤ -2 and z-scoreHeLa ≥ -3 for cell count. In cases where compounds were screened twice, the average values were used to select hit compounds.

[3] = PKIS compound screen raw data, HeLa cell count, replicate 1
[4] = PKIS compound screen raw data, HeLa cell count, replicate 2
[5] = PKIS compound screen raw data, HeLa cell count, replicate 3
[6] = compound screen, HeLa cell count, mean of 3 replicates
[7] = compound screen, HeLa cell count, replicate 1
[8] = compound screen, HeLa cell count, replicate 2
[9] = compound screen, HeLa cell count, replicate 3
[10] = PKIS compound screen raw data, MRSA-infected HeLa cells
[11] = Yes/No: effect without cell death
[12] = compound screen, MRSA-infected HeLa cells
[13] = PKIS compound screen, HeLa cell count, mean of 3 replicates
[14] = PKIS compound screen, HeLa cell count, replicate 1
[15] = PKIS compound screen, HeLa cell count, replicate 2
[16] = PKIS compound screen, HeLa cell count, replicate 3
[17] = PKIS compound screen, Yes/No call on z-scoreHeLa
[18] = PKIS compound screen, MRSA-infected HeLa cells
[19] = PKIS compound screen, Yes/No call (effect without cell death)
[20] = PKIS compound screen, Yes/No call on z-scoreMRSA+
[21] = PKIS compounds raw data, replicate 1, HeLa cell count
[22] = PKIS compounds raw data, replicate 2, HeLa cell count
[23] = PKIS compounds raw data, replicate 3, HeLa cell count
[24] = PKIS compounds raw data, MRSA-infected HeLa cells
[25] = PKIS compound screen, Yes/No call
[26] = PKIS compound screen, mean of 3 replicates
[27] = PKIS compound screen, replicate 1
[28] = PKIS compound screen, replicate 2
[29] = PKIS compound screen, replicate 3

## COC(=O)Nc1nc2ccc(Oc3ccc(NC(=O)Nc4cc(C(F)(F)F)ccc4Cl)cc3)cc2[nH]1 [GW697465A]
[1]; [3]
  cell count rep 1: 4644
[1]; [4]
  cell count rep 2: 3894
[1]; [5]
  cell count rep 3: 5423
[1]; Yes/No call from z-scoreHeLa
  cell death: No
[1]; [6]
  z-scoreHeLa mean: 0.00465
[1]; [7]
  z-scoreHeLa rep 1: 0.21
[1]; [8]
  z-scoreHeLa rep 2: -0.31
[1]; [9]
  z-scoreHeLa rep 3: 0.12
[2]; [10]
  %GFP+ rep 1: 23.4%
  %GFP+ rep 2: 20.2%
  %GFP+ rep 3: 19.7%
[2]; Yes/No call from z-scoreMRSA+
  effect: No
[2]; [11]
  hit: No
[2]; [12]
  z-scoreMRSA+ mean: -0.59
  z-scoreMRSA+ rep 1: -0.44
  z-scoreMRSA+ rep 2: -0.59
  z-scoreMRSA+ rep 3: -0.75

## O=c1cc(N2CCOCC2)nc2n(Cc3cccc(Cl)c3)ccn12 [GSK2296823A]
[1]; [3]
  cell count rep 1: 36512
[1]; [4]
  cell count rep 2: 34515
[1]; [5]
  cell count rep 3: 25382
[1]; Yes/No call from z-scoreHeLa
  cell death: No
[1]; [6]
  z-scoreHeLa mean: 1.30
[1]; [7]
  z-scoreHeLa rep 1: 1.07
[1]; [8]
  z-scoreHeLa rep 2: 1.58
[1]; [9]
  z-scoreHeLa rep 3: 1.26
[2]; [10]
  %GFP+ rep 1: 13.9%
  %GFP+ rep 2: 14.9%
  %GFP+ rep 3: 15.7%
[2]; Yes/No call from z-scoreMRSA+
  effect: No
[2]; [11]
  hit: No
[2]; [12]
  z-scoreMRSA+ mean: -1.35
  z-scoreMRSA+ rep 1: -1.30
  z-scoreMRSA+ rep 2: -1.23
  z-scoreMRSA+ rep 3: -1.51

## COc1cccc(NC(=O)NC2CCN(c3ccnc(Nc4cc(OC)c(OC)c(OC)c4)n3)C2)c1 (stereo not drawn) [GSK1379763A]
[1]; [3]
  cell count rep 1: 25281
[1]; [4]
  cell count rep 2: 24740
[1]; [5]
  cell count rep 3: 24420
[1]; [13]
  z-scoreHeLa mean: 0.05
[1]; [14]
  z-scoreHeLa rep 1: -0.83
[1]; [15]
  z-scoreHeLa rep 2: -0.09
[1]; [16]
  z-scoreHeLa rep 3: 1.07
[1]; [17]
  cell death: No
[2]; [10]
  %GFP+ rep 1: 13.0%
  %GFP+ rep 2: 15.3%
  %GFP+ rep 3: 16.3%
[2]; [18]
  z-scoreMRSA+ mean: -1.34
  z-scoreMRSA+ rep 1: -1.54
  z-scoreMRSA+ rep 2: -1.12
  z-scoreMRSA+ rep 3: -1.35
[2]; [19]
  hit: No
[2]; [20]
  effect: No

## Oc1ccc2ncnc(Nc3ccc(OCc4ccccc4)cc3)c2c1 [GI262866A]
[1]; [21]
  cell count rep 1: 5744
[1]; [22]
  cell count rep 2: 4904
[1]; [23]
  cell count rep 3: 6919
[1]; Yes/No call from z-scoreHeLa
  cell death: No
[1]; [6]
  z-scoreHeLa mean: 0.84
[1]; [7]
  z-scoreHeLa rep 1: 1.00
[1]; [8]
  z-scoreHeLa rep 2: 0.46
[1]; [9]
  z-scoreHeLa rep 3: 1.06
[2]; [24]
  %GFP+ rep 1: 22.5%
  %GFP+ rep 2: 22.3%
  %GFP+ rep 3: 21.5%
[2]; Yes/No call from z-scoreMRSA+
  effect: No
[2]; [11]
  hit: No
[2]; [12]
  z-scoreMRSA+ mean: -0.31
  z-scoreMRSA+ rep 1: -0.65
  z-scoreMRSA+ rep 2: -0.0758
  z-scoreMRSA+ rep 3: -0.21

## CN1CCC(n2cnc(-c3ccc(F)cc3)c2-c2ccnc(Nc3ccccc3)n2)CC1 [SB-236687]
[1]; [3]
  cell count rep 1: 21592
[1]; [4]
  cell count rep 2: 24622
[1]; [5]
  cell count rep 3: 40771
[1]; [13]
  z-scoreHeLa mean: -0.54
[1]; [14]
  z-scoreHeLa rep 1: 0.22
[1]; [15]
  z-scoreHeLa rep 2: -1.90
[1]; [16]
  z-scoreHeLa rep 3: 0.04
[1]; [17]
  cell death: No
[2]; [10]
  %GFP+ rep 1: 10.0%
  %GFP+ rep 2: 12.2%
  %GFP+ rep 3: 12.7%
[2]; [18]
  z-scoreMRSA+ mean: -2.18
  z-scoreMRSA+ rep 1: -2.49
  z-scoreMRSA+ rep 2: -1.90
  z-scoreMRSA+ rep 3: -2.16
[2]; [19]
  hit: Yes
[2]; [20]
  effect: Yes

## CC(C)c1nc(-c2cccc(NS(=O)(=O)c3ccccc3)c2)c(-c2ccnc(Nc3ccc4c(c3)CN(C)CC4)n2)s1 [GSK1649598A]
[1]; [3]
  cell count rep 1: 27349
[1]; [4]
  cell count rep 2: 20392
[1]; [5]
  cell count rep 3: 19957
[1]; [13]
  z-scoreHeLa mean: -0.37
[1]; [14]
  z-scoreHeLa rep 1: -0.48
[1]; [15]
  z-scoreHeLa rep 2: -0.84
[1]; [16]
  z-scoreHeLa rep 3: 0.20
[1]; [25]
  cell death: No
[1]; [17]
  cell death: No
[1]; [26]
  z-scoreHeLa mean: -0.86
[1]; [27]
  z-scoreHeLa rep 1: -1.22
[1]; [28]
  z-scoreHeLa rep 2: -0.62
[1]; [29]
  z-scoreHeLa rep 3: -0.73
[1]; [21]
  cell count rep 1: 4018
[1]; [22]
  cell count rep 2: 5078
[1]; [23]
  cell count rep 3: 4439
[2]; [10]
  %GFP+ rep 1: 10.0%
  %GFP+ rep 2: 11.1%
  %GFP+ rep 3: 12.2%
[2]; [18]
  z-scoreMRSA+ mean: -2.36
  z-scoreMRSA+ rep 1: -2.35
  z-scoreMRSA+ rep 2: -2.27
  z-scoreMRSA+ rep 3: -2.47
[2]; [25]
  effect: No
[2]; [19]
  hit: No and Yes
[2]; [20]
  effect: Yes
[2]; PKIS compound screen
  z-scoreMRSA+ mean: -0.25
  z-scoreMRSA+ rep 1: -0.30
  z-scoreMRSA+ rep 2: -0.22
  z-scoreMRSA+ rep 3: -0.22
[2]; [24]
  %GFP+ rep 1: 25.5%
  %GFP+ rep 2: 24.9%
  %GFP+ rep 3: 26.1%

## Clc1ccc(CNc2nccc(-c3cnn4ncccc34)n2)cc1 [GW781673X]
[1]; [21]
  cell count rep 1: 3767
[1]; [22]
  cell count rep 2: 3267
[1]; [23]
  cell count rep 3: 5990
[1]; Yes/No call from z-scoreHeLa
  cell death: No
[1]; human
  z-scoreHeLa mean: -0.71
  z-scoreHeLa rep 1: -0.91
  z-scoreHeLa rep 2: -0.76
  z-scoreHeLa rep 3: -0.46
[2]; [24]
  %GFP+ rep 1: 13.1%
  %GFP+ rep 2: 14.6%
  %GFP+ rep 3: 14.3%
[2]; Yes/No call from z-scoreMRSA+
  effect: No
[2]; [11]
  hit: No
[2]; [12]
  z-scoreMRSA+ mean: -0.04
  z-scoreMRSA+ rep 1: -0.0227
  z-scoreMRSA+ rep 2: 0.37
  z-scoreMRSA+ rep 3: -0.47

## Cc1cccc(Cn2ccn3c(=O)cc(N4CCOCC4)nc23)c1 [GSK2297542A]
[1]; [3]
  cell count rep 1: 36714
[1]; [4]
  cell count rep 2: 30989
[1]; [5]
  cell count rep 3: 25952
[1]; [13]
  z-scoreHeLa mean: 1.15
[1]; [14]
  z-scoreHeLa rep 1: 1.10
[1]; [15]
  z-scoreHeLa rep 2: 0.98
[1]; [16]
  z-scoreHeLa rep 3: 1.37
[1]; [25]
  cell death: No
[1]; [17]
  cell death: No
[1]; [26]
  z-scoreHeLa mean: 0.56
[1]; [27]
  z-scoreHeLa rep 1: 0.45
[1]; [28]
  z-scoreHeLa rep 2: 0.33
[1]; [29]
  z-scoreHeLa rep 3: 0.91
[1]; [21]
  cell count rep 1: 6792
[1]; [22]
  cell count rep 2: 6500
[1]; [23]
  cell count rep 3: 7025
[2]; [10]
  %GFP+ rep 1: 14.5%
  %GFP+ rep 2: 15.7%
  %GFP+ rep 3: 16.8%
[2]; [18]
  z-scoreMRSA+ mean: -1.12
  z-scoreMRSA+ rep 1: -1.14
  z-scoreMRSA+ rep 2: -1.01
  z-scoreMRSA+ rep 3: -1.21
[2]; [25]
  effect: No
[2]; [19]
  hit: No
[2]; [20]
  effect: No
[2]; PKIS compound screen
  z-scoreMRSA+ mean: -0.44
  z-scoreMRSA+ rep 1: -0.63
  z-scoreMRSA+ rep 2: -0.16
  z-scoreMRSA+ rep 3: -0.51
[2]; [24]
  %GFP+ rep 1: 23.8%
  %GFP+ rep 2: 25.2%
  %GFP+ rep 3: 24.5%

Reference: article PMC10999543, “Identification of kinase modulators as host-directed therapeutics against intracellular methicillin-resistant Staphylococcus aureus” (Frontiers in Cellular and Infection Microbiology, 2024)
